Results taken from ChEMBL document CHEMBL4507276 (2021).

How the values were obtained:
[1] = target: Cyclin-dependent kinase 13 (Homo sapiens) (UniProt Q14004); conditions: Compound concentration 1000.0 nM
[2] = target: Serine/threonine-protein kinase ULK1 (Homo sapiens) (UniProt O75385); conditions: Compound concentration 1000.0 nM
[3] = target: Muscarinic acetylcholine receptor M5 (Homo sapiens) (UniProt P08912); conditions: Compound concentration 10.0 uM
[4] = target: T1, Serine/threonine-protein kinase Nek9 (Homo sapiens) (UniProt Q8TD19); conditions: Compound concentration 1000.0 nM
T1 sequence (whole entry): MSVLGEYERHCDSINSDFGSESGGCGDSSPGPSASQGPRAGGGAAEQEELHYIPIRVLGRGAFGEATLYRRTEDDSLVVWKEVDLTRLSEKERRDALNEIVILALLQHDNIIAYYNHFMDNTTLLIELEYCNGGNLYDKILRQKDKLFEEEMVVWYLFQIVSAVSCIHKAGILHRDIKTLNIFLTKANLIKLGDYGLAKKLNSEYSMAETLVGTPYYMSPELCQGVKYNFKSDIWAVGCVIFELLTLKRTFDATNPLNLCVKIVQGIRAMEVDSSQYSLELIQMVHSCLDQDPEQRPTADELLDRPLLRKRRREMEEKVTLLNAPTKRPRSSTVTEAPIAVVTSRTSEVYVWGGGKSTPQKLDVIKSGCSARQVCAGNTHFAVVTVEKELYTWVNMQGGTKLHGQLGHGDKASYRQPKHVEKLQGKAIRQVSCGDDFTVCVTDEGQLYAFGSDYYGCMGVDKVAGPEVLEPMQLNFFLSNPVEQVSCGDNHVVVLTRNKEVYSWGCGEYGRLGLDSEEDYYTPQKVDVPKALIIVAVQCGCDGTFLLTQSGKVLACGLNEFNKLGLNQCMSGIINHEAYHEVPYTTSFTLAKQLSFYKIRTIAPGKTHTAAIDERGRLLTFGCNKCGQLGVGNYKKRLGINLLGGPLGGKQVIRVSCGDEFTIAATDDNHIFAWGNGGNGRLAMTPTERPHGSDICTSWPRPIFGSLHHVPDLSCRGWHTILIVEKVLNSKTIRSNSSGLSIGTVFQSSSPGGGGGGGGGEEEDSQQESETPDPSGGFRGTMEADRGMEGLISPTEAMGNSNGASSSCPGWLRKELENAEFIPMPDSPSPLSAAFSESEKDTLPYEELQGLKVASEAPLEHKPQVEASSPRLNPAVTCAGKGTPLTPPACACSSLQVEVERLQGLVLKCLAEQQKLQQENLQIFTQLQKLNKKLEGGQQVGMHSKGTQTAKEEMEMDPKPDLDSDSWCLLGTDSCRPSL

[5] = target: T2, Mitogen-activated protein kinase 13 (Homo sapiens) (UniProt O15264); conditions: Compound concentration 1000.0 nM
T2 sequence (whole entry): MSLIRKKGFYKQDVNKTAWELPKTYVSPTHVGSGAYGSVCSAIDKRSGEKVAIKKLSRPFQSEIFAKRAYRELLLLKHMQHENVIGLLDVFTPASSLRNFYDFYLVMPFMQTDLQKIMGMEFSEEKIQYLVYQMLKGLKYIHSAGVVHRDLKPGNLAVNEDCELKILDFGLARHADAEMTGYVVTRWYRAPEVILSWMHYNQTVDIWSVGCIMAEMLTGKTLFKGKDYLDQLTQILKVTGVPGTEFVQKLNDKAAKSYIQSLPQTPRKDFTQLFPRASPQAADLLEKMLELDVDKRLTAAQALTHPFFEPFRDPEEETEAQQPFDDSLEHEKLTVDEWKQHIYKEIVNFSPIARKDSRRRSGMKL

[6] = target: Mitogen-activated protein kinase kinase kinase 19 (Homo sapiens) (UniProt Q56UN5); conditions: Compound concentration 1000.0 nM
Sequence of Mitogen-activated protein kinase kinase kinase 19 (Homo sapiens) (Q56UN5 whole entry): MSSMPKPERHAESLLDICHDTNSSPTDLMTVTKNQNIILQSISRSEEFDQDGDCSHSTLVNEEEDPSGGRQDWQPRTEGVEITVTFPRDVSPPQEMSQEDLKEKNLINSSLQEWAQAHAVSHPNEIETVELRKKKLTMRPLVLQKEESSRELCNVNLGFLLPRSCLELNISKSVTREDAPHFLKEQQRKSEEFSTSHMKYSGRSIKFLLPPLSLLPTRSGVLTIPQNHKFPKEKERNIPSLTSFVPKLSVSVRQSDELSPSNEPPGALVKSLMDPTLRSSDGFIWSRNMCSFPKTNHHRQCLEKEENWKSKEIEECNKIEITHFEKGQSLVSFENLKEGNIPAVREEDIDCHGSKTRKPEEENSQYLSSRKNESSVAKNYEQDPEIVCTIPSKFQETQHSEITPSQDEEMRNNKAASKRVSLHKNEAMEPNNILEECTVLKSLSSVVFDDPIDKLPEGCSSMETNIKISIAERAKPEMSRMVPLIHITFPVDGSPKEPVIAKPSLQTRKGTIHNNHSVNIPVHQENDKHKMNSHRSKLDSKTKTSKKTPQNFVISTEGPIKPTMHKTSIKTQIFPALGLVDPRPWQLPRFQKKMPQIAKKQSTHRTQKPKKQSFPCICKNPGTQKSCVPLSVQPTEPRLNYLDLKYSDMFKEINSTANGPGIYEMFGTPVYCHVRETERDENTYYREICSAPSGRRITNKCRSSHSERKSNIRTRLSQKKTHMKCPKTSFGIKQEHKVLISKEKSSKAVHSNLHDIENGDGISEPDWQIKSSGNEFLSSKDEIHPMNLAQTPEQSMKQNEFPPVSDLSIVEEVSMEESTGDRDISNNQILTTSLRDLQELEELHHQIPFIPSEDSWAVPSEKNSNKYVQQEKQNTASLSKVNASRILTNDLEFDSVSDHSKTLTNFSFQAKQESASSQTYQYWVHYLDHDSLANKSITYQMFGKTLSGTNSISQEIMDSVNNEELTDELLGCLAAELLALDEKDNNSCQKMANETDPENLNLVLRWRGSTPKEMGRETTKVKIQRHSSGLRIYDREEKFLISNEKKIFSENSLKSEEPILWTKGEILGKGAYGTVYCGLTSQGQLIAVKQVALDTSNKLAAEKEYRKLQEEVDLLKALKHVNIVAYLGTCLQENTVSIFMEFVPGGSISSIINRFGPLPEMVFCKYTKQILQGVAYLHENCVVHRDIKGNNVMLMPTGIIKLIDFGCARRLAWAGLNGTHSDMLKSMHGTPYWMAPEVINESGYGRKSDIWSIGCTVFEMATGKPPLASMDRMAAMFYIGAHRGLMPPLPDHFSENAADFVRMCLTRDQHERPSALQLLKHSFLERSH

[7] = target: Tyrosine-protein kinase Lyn (Homo sapiens) (UniProt P07948); conditions: Compound concentration 1000.0 nM
Sequence of Tyrosine-protein kinase Lyn (Homo sapiens) (P07948 2-512 limits assumed): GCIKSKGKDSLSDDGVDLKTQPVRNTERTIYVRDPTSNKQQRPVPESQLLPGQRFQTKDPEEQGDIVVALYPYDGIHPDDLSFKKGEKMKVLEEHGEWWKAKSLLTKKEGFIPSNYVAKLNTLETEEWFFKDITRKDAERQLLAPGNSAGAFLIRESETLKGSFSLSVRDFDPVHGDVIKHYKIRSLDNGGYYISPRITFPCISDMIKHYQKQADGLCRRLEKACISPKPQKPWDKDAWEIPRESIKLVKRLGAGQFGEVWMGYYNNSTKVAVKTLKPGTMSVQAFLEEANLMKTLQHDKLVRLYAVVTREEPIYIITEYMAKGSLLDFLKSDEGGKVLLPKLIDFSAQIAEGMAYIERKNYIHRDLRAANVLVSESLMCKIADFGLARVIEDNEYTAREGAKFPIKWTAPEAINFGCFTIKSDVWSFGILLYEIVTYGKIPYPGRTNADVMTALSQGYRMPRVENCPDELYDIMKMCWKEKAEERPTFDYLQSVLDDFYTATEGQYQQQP

[8] = target: T3, Calcium/calmodulin-dependent protein kinase type IV (Homo sapiens) (UniProt Q16566); conditions: Compound concentration 1000.0 nM
T3 sequence (whole entry): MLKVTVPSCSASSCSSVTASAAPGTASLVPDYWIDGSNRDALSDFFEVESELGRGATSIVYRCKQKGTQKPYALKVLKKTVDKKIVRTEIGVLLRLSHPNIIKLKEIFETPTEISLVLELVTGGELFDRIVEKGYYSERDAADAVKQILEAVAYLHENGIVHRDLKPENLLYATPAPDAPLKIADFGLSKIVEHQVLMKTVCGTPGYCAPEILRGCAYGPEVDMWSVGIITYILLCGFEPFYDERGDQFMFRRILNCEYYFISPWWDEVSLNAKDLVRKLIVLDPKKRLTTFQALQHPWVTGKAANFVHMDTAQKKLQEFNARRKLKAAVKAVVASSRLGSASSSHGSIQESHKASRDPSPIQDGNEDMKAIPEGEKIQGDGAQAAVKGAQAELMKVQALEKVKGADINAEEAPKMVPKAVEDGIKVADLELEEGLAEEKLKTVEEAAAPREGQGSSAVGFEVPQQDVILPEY

[9] = target: Serine/threonine-protein kinase 17B (Homo sapiens) (UniProt O94768); conditions: Compound concentration 1000.0 nM
Sequence of Serine/threonine-protein kinase 17B (Homo sapiens) (O94768 whole entry): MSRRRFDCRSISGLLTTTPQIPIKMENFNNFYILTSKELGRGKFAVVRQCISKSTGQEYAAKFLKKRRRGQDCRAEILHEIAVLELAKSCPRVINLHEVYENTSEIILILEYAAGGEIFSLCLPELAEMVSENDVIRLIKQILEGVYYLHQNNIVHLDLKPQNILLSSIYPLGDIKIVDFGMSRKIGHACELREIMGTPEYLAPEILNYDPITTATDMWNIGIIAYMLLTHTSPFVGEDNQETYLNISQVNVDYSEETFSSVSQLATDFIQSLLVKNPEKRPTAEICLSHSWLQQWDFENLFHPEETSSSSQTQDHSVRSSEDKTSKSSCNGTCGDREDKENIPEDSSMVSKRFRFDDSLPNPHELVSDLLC

[10] = target: ALK tyrosine kinase receptor (Homo sapiens) (UniProt Q9UM73); conditions: Compound concentration 1000.0 nM
[11] = target: T4, Megakaryocyte-associated tyrosine-protein kinase (Homo sapiens) (UniProt P42679); conditions: Compound concentration 1000.0 nM
T4 sequence (whole entry): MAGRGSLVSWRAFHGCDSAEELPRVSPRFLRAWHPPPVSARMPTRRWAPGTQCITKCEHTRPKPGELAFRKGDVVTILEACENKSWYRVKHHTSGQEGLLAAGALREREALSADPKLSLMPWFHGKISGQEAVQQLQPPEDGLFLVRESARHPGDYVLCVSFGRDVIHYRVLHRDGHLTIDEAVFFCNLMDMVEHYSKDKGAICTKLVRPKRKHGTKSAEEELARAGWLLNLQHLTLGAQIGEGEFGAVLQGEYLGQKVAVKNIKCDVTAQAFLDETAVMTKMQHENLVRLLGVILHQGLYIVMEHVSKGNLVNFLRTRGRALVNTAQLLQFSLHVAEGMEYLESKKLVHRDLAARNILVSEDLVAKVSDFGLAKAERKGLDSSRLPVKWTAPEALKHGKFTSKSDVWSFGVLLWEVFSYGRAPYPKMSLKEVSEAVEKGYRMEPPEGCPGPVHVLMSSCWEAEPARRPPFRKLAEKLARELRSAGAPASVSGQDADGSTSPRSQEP

[12] = target: Casein kinase I isoform alpha (Homo sapiens) (UniProt P48729); conditions: Compound concentration 1000.0 nM
Sequence of Casein kinase I isoform alpha (Homo sapiens) (P48729 2-337 limits assumed): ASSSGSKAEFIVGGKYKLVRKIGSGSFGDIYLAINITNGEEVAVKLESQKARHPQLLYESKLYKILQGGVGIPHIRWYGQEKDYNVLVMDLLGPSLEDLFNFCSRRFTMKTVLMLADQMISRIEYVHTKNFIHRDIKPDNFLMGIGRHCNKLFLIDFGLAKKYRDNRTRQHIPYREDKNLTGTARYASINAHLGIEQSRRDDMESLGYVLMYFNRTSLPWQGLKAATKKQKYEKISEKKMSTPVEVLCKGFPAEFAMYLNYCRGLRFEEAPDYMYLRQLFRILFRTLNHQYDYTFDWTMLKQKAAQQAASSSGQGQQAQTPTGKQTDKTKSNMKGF

[13] = target: cAMP-dependent protein kinase catalytic subunit alpha (Homo sapiens) (UniProt P17612); conditions: Compound concentration 1000.0 nM
[14] = target: Serine/threonine-protein kinase STK11 (Homo sapiens) (UniProt Q15831); conditions: Compound concentration 1000.0 nM
Sequence of Serine/threonine-protein kinase STK11 (Homo sapiens) (Q15831 whole entry): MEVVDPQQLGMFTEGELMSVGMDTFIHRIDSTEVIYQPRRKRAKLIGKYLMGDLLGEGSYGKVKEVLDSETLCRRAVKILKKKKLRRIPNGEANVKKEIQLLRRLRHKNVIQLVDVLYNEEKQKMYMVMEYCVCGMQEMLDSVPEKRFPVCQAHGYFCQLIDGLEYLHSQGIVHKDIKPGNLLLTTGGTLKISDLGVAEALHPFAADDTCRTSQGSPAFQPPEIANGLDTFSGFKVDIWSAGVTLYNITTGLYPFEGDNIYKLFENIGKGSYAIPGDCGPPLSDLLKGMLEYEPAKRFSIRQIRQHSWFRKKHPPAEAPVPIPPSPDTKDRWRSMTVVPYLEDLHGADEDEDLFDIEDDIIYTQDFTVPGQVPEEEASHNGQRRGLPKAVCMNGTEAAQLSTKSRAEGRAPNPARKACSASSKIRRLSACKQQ

Sequence of Muscarinic acetylcholine receptor M5 (Homo sapiens) (P08912 whole entry): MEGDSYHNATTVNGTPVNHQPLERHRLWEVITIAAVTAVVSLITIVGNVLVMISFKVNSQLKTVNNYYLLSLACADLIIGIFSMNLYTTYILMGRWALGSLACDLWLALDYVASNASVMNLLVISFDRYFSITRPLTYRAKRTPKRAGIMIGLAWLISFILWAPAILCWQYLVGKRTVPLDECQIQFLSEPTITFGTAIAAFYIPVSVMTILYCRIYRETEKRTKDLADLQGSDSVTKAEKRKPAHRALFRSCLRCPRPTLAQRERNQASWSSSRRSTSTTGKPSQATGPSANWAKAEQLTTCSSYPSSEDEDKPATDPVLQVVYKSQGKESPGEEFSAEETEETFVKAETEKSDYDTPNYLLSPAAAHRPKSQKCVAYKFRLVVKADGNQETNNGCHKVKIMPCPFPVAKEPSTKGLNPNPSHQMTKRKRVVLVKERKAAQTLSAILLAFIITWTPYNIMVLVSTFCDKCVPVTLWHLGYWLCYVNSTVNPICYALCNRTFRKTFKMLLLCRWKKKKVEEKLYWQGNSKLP
Sequence of Serine/threonine-protein kinase ULK1 (Homo sapiens) (O75385 whole entry): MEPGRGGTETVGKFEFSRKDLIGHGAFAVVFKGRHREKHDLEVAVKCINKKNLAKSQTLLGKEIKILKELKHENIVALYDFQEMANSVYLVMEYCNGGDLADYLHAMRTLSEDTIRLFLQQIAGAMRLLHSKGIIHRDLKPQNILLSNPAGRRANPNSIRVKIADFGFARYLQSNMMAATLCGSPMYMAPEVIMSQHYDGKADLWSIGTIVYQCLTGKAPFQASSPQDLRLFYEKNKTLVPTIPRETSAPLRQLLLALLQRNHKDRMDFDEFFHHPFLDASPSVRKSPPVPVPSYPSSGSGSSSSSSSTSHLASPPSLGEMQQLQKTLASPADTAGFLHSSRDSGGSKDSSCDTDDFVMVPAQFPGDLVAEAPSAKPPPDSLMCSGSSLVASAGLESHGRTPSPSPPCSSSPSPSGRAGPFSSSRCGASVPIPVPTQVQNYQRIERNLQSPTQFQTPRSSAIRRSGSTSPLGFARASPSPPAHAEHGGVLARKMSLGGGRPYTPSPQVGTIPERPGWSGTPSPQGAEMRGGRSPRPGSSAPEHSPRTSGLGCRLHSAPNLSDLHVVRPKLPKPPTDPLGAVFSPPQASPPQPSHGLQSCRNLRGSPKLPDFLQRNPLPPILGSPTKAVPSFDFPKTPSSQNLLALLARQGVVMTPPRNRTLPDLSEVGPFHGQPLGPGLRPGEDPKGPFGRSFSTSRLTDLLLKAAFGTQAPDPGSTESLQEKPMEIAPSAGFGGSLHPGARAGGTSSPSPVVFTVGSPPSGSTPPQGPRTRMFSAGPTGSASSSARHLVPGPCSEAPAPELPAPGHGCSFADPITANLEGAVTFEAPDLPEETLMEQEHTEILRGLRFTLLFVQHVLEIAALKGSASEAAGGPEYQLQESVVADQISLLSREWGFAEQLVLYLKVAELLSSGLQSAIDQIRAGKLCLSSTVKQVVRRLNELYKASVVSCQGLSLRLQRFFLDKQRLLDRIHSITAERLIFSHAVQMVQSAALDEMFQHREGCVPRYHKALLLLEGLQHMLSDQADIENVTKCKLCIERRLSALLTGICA

CN(C)C(=O)Cn1cc(-c2nc(C3(c4ccc(-c5cnc(N)nc5)cc4)CC3)no2)cn1 [BI 0153]
inactive: residual activity [1] 91% | residual activity [2] 75% | inhibition [3] -1.63% | residual activity [4] 100% | residual activity [5] 91% | residual activity [6] 73% | residual activity [7] 79% | residual activity [8] 100% | residual activity [9] 100% | residual activity [10] 77% | residual activity [11] 77% | residual activity [12] 62% | residual activity [13] 91% | residual activity [14] 100%

CN(C)C(=O)Cn1cc(-c2nc([C@@](C)(c3ccc(-c4cnc(N)nc4)cc3)C3CC3)no2)cn1 [BI 665915]
inactive: residual activity [1] 83% | residual activity [2] 77% | inhibition [3] 5.21% | residual activity [4] 95% | residual activity [5] 93% | residual activity [6] 61% | residual activity [7] 87% | residual activity [8] 83% | residual activity [9] 88% | residual activity [10] 85% | residual activity [11] 77% | residual activity [12] 100% | residual activity [13] 87% | residual activity [14] 77%
